Three molecules from patent US10519167B2, “3-oxa-8-azabicyclo[3.2.1]octane derivatives and their use in the treatment of cancer and hemoglobinopathies” (CTXT PTY LTD, priority 2016, dated 2019) can be followed below.

Structures can show the parent of a compound that is named as a salt.

Test [1] concerns the target Full-length PRMT5 enzyme co-expressed with His6-MEP50 (Homo sapiens (Human), UniProt O14744). Description: PRMT5 Biochemical Assay. The settings on record: Transcreener EPIGEN methyltransferase assay, histone H4 derived peptide substrate, 4 hours at 37 degree Celsius. The protocol:
Compounds of the invention may be tested for in vitro activity in the following assay:
A histone H4 derived peptide is used as substrate (amino acid sequence: […]NH2). Full-length PRMT5 enzyme (NCBI Reference sequence NP_006100.2) was co-expressed with His6-MEP50 in insect cells and purified via Nickel immobilized metal affinity and gel filtration chromatography (“the enzyme”).
The 6 μL reactions are run in Greiner brand black 384-well low volume assay plates. All reactions contained assay buffer (phosphate buffered saline, 0.01% (v/v) Tween-20, 0.01% (w/v) albumin from chicken egg white, 1 mM Dithiothreitol, 1 μM peptide substrate, 1 μM S-Adenosyl methionine, and 15 ng/reaction enzyme, with the enzyme being omitted from negative control reactions. Compounds were added in a volume of 100 nL from dilution series prepared in DMSO, positive and negative control reactions receiving the same volume DMSO without compound. The plates were sealed with adhesive seals and incubated for 4 hours at 37 degree Celsius. Reaction progress was measured using the Transcreener™ EPIGEN methyltransferase assay (BellBrook Labs, Madison, Wis.) as recommended by the manufacturer. To each reaction 2 μL detection mix were added, containing coupling enzymes, fluorescence polarisation tracer, and AMP antibody. Plates were incubated for 90 minutes before being read on a PerkinElmer EnVision™ plate reader in fluorescence polarisation mode. IC50 values were obtained from the raw readings by calculating percent inhibition (% I) for each reaction relative to controls on the same plate (% I=(I−CN)/(CP−CN) where CN/CP are the averages of the negative/positive reactions, respectively), then fitting the % I data vs. compound concentration [I] to % I=(A+((B−A)/(1+((C/[I]^D)))) where A is the lower asymptote, B is the upper asymptote, C is the IC50 value, and D is the slope.

For test [2], the system named is TE11 cell line. The experiment in a line: PRMT5 Biomarker Assay (symmetrical dimethylation of arginine, Histone H4 Arginine 3). The settings on record: Homo sapiens, TE-11; TE11 cells, 72 hours incubation, Di-Methyl Histone H4 Arginine 3 level. The test is classed as cell-based. The protocol:
Compounds of the invention may be tested for potency to inhibit symmetrical dimethylation of arginine in the following assay:
The cell line TE11 was seeded at a density of 6,000 cells per well in 96 well optical quality tissue culture plates in DME medium and 10% foetal bovine serum, and allowed to adhere for 5 hours under standard culture conditions (37 degree Celsius, 5% CO2). Compound dilutions prepared in DMSO were added to the medium, with negative control wells reserved for treatment with DMSO only and maximum inhibition controls receiving a potent PRMT5 inhibitor compound at 1 μM concentration. After incubation for 72 hours, the cells were fixed with 3.7% formaldehyde in PBS for 30 minutes at room temperature, washed with phosphate buffer saline and blocked with Odyssey blocking buffer (LI-COR, Lincoln, Nebr.). Rabbit anti-Di-Methyl Histone H4 Arginine 3 specific antibody (Epigentek) in Odyssey blocking buffer was added and incubated for 14 hours at 4 degree Celsius. After washing, anti-rabbit secondary antibody labelled with Alexa647 dye (LifeTechnologies) and Hoechst 33342 (1 μg/mL, SigmaAldrich) were added for 1 hour incubation. Plates were washed and read on a PerkinElmer Envision 2103 in fluorescence intensity scanning mode (24 scans across the well area). The plates were imaged on a PerkinElmer Phenix high content imaging platform. Using a Columbus image analysis pipeline, individual nuclei were located by Hoechst 33342 stain and the methylation level was calculated from the Alexa647-related intensity in the same area. IC50 values were obtained from the mean Alexa647-related intensity per cell by calculating percent inhibition (% I) for each well relative to controls on the same plate (% I=(I−CN)/(CP−CN) where CN/CP are the averages of the negative/maximum inhibition controls, respectively), then fitting the % I data vs. compound concentration [I] to % I=(A+((B−A)/(1+((C/[I])^D)))) where A is the lower asymptote, B is the upper asymptote, C is the IC50 value, and D is the slope.

Sequence of Full-length PRMT5 enzyme co-expressed with His6-MEP50 (O14744 whole entry): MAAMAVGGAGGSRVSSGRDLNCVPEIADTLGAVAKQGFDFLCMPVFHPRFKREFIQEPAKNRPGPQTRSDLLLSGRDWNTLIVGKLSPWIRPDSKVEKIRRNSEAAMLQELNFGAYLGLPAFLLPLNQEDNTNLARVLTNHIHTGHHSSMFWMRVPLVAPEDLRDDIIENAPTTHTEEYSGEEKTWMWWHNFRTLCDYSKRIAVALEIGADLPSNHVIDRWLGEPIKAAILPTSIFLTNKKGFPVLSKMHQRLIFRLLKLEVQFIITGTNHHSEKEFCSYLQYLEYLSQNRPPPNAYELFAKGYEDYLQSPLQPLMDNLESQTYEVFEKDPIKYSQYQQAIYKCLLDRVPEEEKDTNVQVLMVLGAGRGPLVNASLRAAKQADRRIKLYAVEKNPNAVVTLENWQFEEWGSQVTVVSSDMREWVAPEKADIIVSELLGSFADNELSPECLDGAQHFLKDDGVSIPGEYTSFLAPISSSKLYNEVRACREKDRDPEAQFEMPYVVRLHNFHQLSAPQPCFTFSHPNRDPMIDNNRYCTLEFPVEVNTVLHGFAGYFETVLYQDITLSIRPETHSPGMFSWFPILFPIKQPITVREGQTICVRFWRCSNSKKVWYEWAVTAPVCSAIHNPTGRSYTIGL
Sequence of Full-length PRMT5 enzyme co-expressed with His6-MEP50 (Q9BQA1 whole entry partner): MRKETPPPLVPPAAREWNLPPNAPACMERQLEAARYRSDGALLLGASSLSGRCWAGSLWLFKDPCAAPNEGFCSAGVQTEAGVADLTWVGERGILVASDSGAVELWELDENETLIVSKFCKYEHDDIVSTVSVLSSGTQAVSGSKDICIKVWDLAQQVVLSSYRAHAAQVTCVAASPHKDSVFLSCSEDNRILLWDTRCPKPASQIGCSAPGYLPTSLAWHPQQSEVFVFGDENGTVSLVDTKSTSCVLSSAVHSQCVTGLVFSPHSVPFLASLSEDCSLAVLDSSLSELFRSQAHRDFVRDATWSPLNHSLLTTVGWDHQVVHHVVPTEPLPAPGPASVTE

Take `CCOc1cc(C(=O)N2C3COCC2CC(O)C3)ccc1C(=O)NC[C@@H](O)[C@@H]1Cc2ccccc2CN1` (stereo partly drawn) [Compound 1, 2-Ethoxy-N—((R)-2-hydroxy-2-((S)-1,2,3,4-tetrahydroisoquinolin-3-yl)ethyl)-4-(7-hydroxy-3-oxa-9-azabicyclo[3.3.1]nonane-9-carbonyl)benzamide Hydrochloride]: the values for the IC50 in test [1] and in test [2] were 19 nM and 3.9 nM, respectively.
Consider `CCOc1cc(C(=O)N2C3COCC2CC(O)C3)ccc1C(=O)NC[C@@H](O)CNC1Cc2ccccc2C1` (stereo partly drawn) [Compound 2, N—((S)-3-((2,3-Dihydro-1H-inden-2-yl)amino)-2-hydroxypropyl)-2-ethoxy-4-(7-hydroxy-3-oxa-9-azabicyclo[3.3.1]nonane-9-carbonyl)benzamide], for which the IC50 was 19 nM in test [1] and 0.6 nM in test [2].
Take `CCOc1cc(C(=O)N2C3CCC2COC3)ccc1C(=O)N(C)C[C@@H](O)[C@@H]1Cc2ccccc2CN1` [Compound 3, 4-(3-Oxa-8-azabicyclo[3.2.1]octane-8-carbonyl)-2-ethoxy-N—((R)-2-hydroxy-2-((S)-1,2,3,4-tetrahydroisoquinolin-3-yl)ethyl)-N-methylbenzamide Hydrochloride]: the values for the IC50 in test [1] and in test [2] were 36 nM and 11.7 nM, respectively.

Broadly, the IC50 is the concentration that inhibits the measured activity by half.
